Measured values taken from US5599663A, “Angiotensin IV and analogs as regulators of fibrinolysis” (Brighan & Women's Hospital, priority 1993, dated 1997).

Columns and labels:
[1] = test system: PAI-1; assay: Plasma PAI-1 during graded infusions in rabbits; assay type: in vivo, New Zealand White rabbits; settings: for effect on plasma PAI-1 levels: graded infusions, healthy rabbits
From the text: FIG. 12 is a graph of the mean plasma PAI-1 activity at baseline and after increasing doses of Ang II alone, Ang IV alone, saline, and Ang II in rabbits pretreated with amastatin. Error bars represent SEM.
(§1) We have also undertaken a series of experiments designed to identify the specific form of angiotensin that is responsible for the increased plasma PAI-1 levels seen in our human studies. We examined the effects of graded infusions of Ang II and Ang IV on blood pressure and plasma PAI activity in healthy New Zealand White rabbits.

[2] = Mean blood pressure during graded infusions in rabbits; assay type: in vivo, New Zealand White rabbits; settings: for effect on mean blood pressure: graded infusions, healthy rabbits
From the text: FIG. 11 is a graph of the mean BP at baseline and after increasing doses of Ang II alone, Ang IV alone, saline, and Ang II in rabbits pretreated with amastatin. Error bars represent SEM.
as §1

[3] = test system: PAI-1 mRNA; assay: PAI-1 mRNA induction in bovine aortic endothelial cells (Northern / slot blot); assay type: cell-based; settings: for effect on Ang II stimulation of PAI-1 mRNA levels: antagonist 1 μM
Description: FIG. 7 is a Northern blot showing the induction of PAI-1 RNA after treatment of bovine aortic endothelial cells with angiotensin II.
FIG. 8 is a graph showing the dose response of PAI-1 RNA induction by Ang II.
FIG. 9 is a Northern blot showing the time course of induction of PAI-1 RNA after treatment of bovine aortic endothelial cells with 20 nM angiotensin II.
FIG. 10 is a graph showing the PAI-1 mRNA levels as a function of time, in bovine aortic endothelial cells treated with 20 nM angiotensin II.
(§2) The increases in PAI-1 activity and antigen observed thus far have been associated with an approximate 4-fold increase in PAI-1 message (FIGS. 7 and 8). The cells for these experiments were incubated for 8 hour in fresh serum-free media containing the indicated concentrations of Ang II. Total RNA was extracted and analyzed by Northern blotting.
Ang II is also associated with a time-dependent increase in PAI-1 mRNA that peaks 6-8 hrs after exposure to Ang II, as assessed by Northern blot analysis (FIG. 9). Confluent cultures of bovine aortic endothelial cells were incubated with 20 nM Ang II in serum-free DMEM. Total cytoplasmic RNA was extracted at the indicated times and analyzed by Northern blotting (FIG. 9). The results corresponding to the 3.3-kb PAI-1 mRNA species were quantified by transmission densitometry. To control for variability in gel loading, the blots were stripped and rehybridized with a cDNA probe for β-actin. Normalized data are plotted in the FIG. 10.

[4] = target: AT1 receptor; settings: well established property of the AT1 receptor; cited from earlier work
[5] = test system: bovine aortic endothelial cells receptor for Ang II; assay: Binding of ^125 I-Ang II to cultured bovine aortic endothelial cells
From the text: We first studied the role of angiotensin (Ang) II in the regulation of endothelial fibrinolysis, by determining if Ang II binds to the target cell, which in this case was bovine aortic endothelial cells. In these experiments, we used early passage bovine aortic endothelial cells (P2-4) grown to confluence in DMEM supplemented with penicillin, streptomycin, and 10% newborn calf serum.
To test whether the Ang II receptor on the bovine aortic endothelial cells is similar or identical to the classic AT1 receptor, we measured the potency of the antagonist saralasin for binding.

[6] = test system: PAI-1; assay: Plasma PAI-1 during Ang II infusion in human volunteers; assay type: in vivo
Description: (§3) Second, this binding appears to have a functional effect on bovine aortic endothelial cells in inducing the synthesis of PAI-1 message and the secretion of PAI-1 into the conditioned media. Importantly, we have observed increased levels of PAI-1 mRNA induced by physiologically relevant doses of Ang II (i.e. 0.1 nM). The potential significance of these in vitro findings are supported by recent data obtained during the infusion of Ang II into healthy human volunteers. In these studies, normotensive volunteers (N=4) received an infusion of Ang II in graded doses of 1.0, 3.0. and 10.0 ng/kg/min., while 4 additional normotensive volunteers received an infusion of D5W. Plasma levels of t-PA and PAI-1 were measured prior to and at the conclusion of each dose. […] Similar findings have been obtained in an additional group of hypertensive volunteers (N=6) that received a constant infusion of Ang II (3 ng/kg/min) over a 45 min period. In these individuals, we observed a 60% increase in plasma PAI-1 compared with pretreatment levels (p<0.04).

[7] = test system: t-PA; assay: Plasma t-PA during Ang II infusion in human volunteers; assay type: in vivo
Description: as §3

[8] = test system: PAI-1; assay: PAI-1 secretion into conditioned media of bovine aortic endothelial cells (ELISA; activity); assay type: cell-based
Description: FIG. 6 is a dose response curve of PAI-1 secretion into the conditioned media of bovine aortic endothelial cells following exposure to Ang II.
In these experiments, we investigated the effects of Ang II on the secretion of PAI-1 into the media of cultured endothelial cells. […] Ang II (in the concentrations indicated) was added to washed, confluent cultures of bovine aortic endothelial cells, and the conditioned media was removed for assay after 18 hour. Levels of PAI-1 antigen in the media were determined using a specific ELISA for PAI-1, such as the assay described in DeClerk et al., Blood (1988) 71:220-225, or the assay sold by Biopool, AB, Umea, Sweden.
as §2

[9] = test system: t-PA; assay: t-PA antigen or activity in conditioned media of bovine aortic endothelial cells; assay type: cell-based
[10] = Ang II after pretreatment with amastatin

CC[C@H](C)[C@H](NC(=O)[C@H](Cc1ccc(O)cc1)NC(=O)[C@@H](N)C(C)C)C(=O)N[C@@H](Cc1cnc[nH]1)C(=O)N1CCC[C@H]1C(=O)N[C@@H](Cc1ccccc1)C(=O)O [Ang IV, VAL-TYR-ILE-HIS-PRO-PHE]
effect on plasma PAI-1 levels [1]: dose-dependent increase in plasma PAI-1 levels
effect on mean blood pressure [2]: stable mean BP

CCCCc1nc(Cl)c(CO)n1Cc1ccc(-c2ccccc2-c2nn[nH]n2)cc1 [Dup 753]
effect on Ang II stimulation of PAI-1 mRNA levels [3]: does not appear to be prevented

CNCC(=O)N[C@@H](CCCN=C(N)N)C(=O)N[C@H](C(=O)N[C@@H](Cc1ccc(O)cc1)C(=O)N[C@H](C(=O)N[C@@H](Cc1cnc[nH]1)C(=O)N1CCC[C@H]1C(=O)N[C@@H](C)C(=O)O)C(C)C)C(C)C [saralasin, (Sar^1,Val^5,Ala^8)-angiotensin]
Ki [4]: 0.4 nM
effect on Ang II stimulation of PAI-1 mRNA levels [3]: does not appear to be prevented

O[C@H](CS)[C@H](O)CS (relative stereo) [DTT]
reduction in total binding ([5]; 5 mM DTT, ^125 I-Ang II (0.27 nM)): 50%

CC[C@H](C)[C@H](NC(=O)[C@H](Cc1ccc(O)cc1)NC(=O)[C@@H](NC(=O)[C@H](CCCNC(=N)N)NC(=O)[C@@H](N)CC(=O)O)C(C)C)C(=O)N[C@@H](Cc1cnc[nH]1)C(=O)N1CCC[C@H]1C(=O)N[C@@H](Cc1ccccc1)C(=O)O [Ang II, angiotensin II]
effect on PAI-1 secretion/response in normotensive volunteers ([6]; graded infusion 1.0, 3.0 and 10.0 ng/kg/min): increased in the subjects that received the Ang II infusions in a dose-dependent manner
increase in plasma PAI-1 compared with pretreatment ([6]; hypertensive volunteers (N=6), 3 ng/kg/min over 45 min, p<0.04): 60%
plasma PAI-1 level ([6]; normotensive volunteers (N=4), infusion graded 1.0, 3.0 and 10.0 ng/kg/min, from 14.7±5.3, mean±SEM, p<0.001 by ANOVA): 33.5±10.6
effect on plasma PAI-1 levels [1]: dose-dependent increase in plasma PAI-1 levels
plasma t-PA levels [7]: plasma t-PA levels do not increase
effect on secretion of PAI-1 into media ([8]; 18 hour exposure, PAI-1 antigen ELISA): induce the secretion of PAI-1 in a dose-dependent manner
EC50 ([8]; PAI-1 antigen in conditioned media, 18 hour): ~20 nM
changes in PAI-1 activity ([8]; after reactivation of latent protein with guanidine hydrochloride): corresponding changes in PAI-1 activity
effect on mean blood pressure [2]: dose-dependent increase in mean blood pressure
concentration at which increased levels of PAI-1 mRNA were observed [3]: 0.1 nM
time of peak PAI-1 mRNA after exposure ([3]; 20 nM Ang II, serum-free DMEM): 6 to 8 h
increase in PAI-1 message ([3]; 8 hour, serum-free media, normalized to β-actin): ~4 fold
effect on t-PA antigen or activity in conditioned media [9]: not observed a similar increase in t-PA antigen or activity

CC(C)C[C@@H](N)[C@H](O)C(=O)N[C@H](C(=O)N[C@H](C(=O)N[C@@H](CC(=O)O)C(=O)O)C(C)C)C(C)C [amastatin]
PAI-1 response, Ang II after amastatin pretreatment [1, 10]: PAI-1 response was reduced considerably
effect on mean blood pressure, Ang II after amastatin pretreatment [2, 10]: expected increases in blood pressure

^125 I-Ang II: ^125 I labelled Ang II
character of binding to bovine aortic endothelial cells ([5]; FIG. 2): saturable and specific manner
Kd ([5]; Scatchard transformation of specific binding, room temperature, read-out: apparent Kd): ~2 nM
Bmax ([5]; Scatchard transformation, room temperature): 105 fmol/10^6 cells
time to binding equilibrium ([5]; room temperature): ≤ 45 min
